Test results from patent US11938129B2, “Methods and compositions for the treatment of vascular disease” (THE GENERAL HOSPITAL CORPORATION, priority 2018, dated 2024).
“Also recorded” adds a separate entry of the source.

Key:
[1] = tested on: other histone methyltransferases; details: cited from earlier work
[2] = tested on: VSMCs; experiment: cytoskeletal architecture of VSMCs treated with GSK343; type: cell-based, mouse
Procedure: Primary human aortic smooth muscle cells (HAoSMC) from healthy donors were purchased from Cell Applications Inc., California, USA (Cat. #354K-05a). Primary aneurysm aortic SMCs were isolated from fresh TAA tissue at the moment of surgery by standard explant of the aortic media. Mouse aortic SMCs were isolated by standard explant of the ascending section of the aortas from wild-type or Fbn1ci°39G1+ mice. Smooth muscle cell identity was assessed by immunofluorescence staining of contractile markers including SM22a, Calponin, Smoothelin and Vinculin. In order to preserve cell identity all experiments were carried out at passages 1-5 (Timraz et al., 2016). Human and murine SMCs were grown with smooth muscle cell growth medium from Cell Applications Inc. (Cat. #311-500). […] Fresh media containing GSK343 was supplied daily. For GSK343/TGF81 (10 ng/mL) combo treatment, cells were first treated with complete media containing GSK343 at concentration of 10 nM during the 2 first days followed by GSK343/TGFβ combination treatment the next 2 days. Prior to cellular collection cells were washed with sterile PBS and RNA or protein extraction were performed as described above.

[3] = tested on: VSMC phenotypic markers; experiment: expression of VSMC phenotypic markers in aortas of treated Fbn1C1039G/+ mice; type: in vivo, mouse; details: aortas of Fbn1C1039G/+ mice treated from two to six months
Procedure: Total RNA was prepared from tissue or primary cells using RNeasy kit (Qiagen) following the manufacturer's protocol. The cDNA was prepared by reverse transcription, and expression of SMC contractile genes were analyzed by qRT-PCR on SYBR green system (Applied Biosystem, Foster city, CA). 50 pL of plasma from wild-type or Fbn1cl° 39G1+ mice were used to prepare total RNA as mentioned above. Expression results were analyzed by the ddCT method and GAPDH (encoding glyceraldehyde-3-phosphate dehydrogenase) was used as a housekeeping gene. Fold change were calculated by taking the average over all the control samples as the baseline. […] The supernatant was removed and the vesicular fraction was resuspended with 750 pL of TRizol reagent followed by RNA extraction using the RNeasy kit (Qiagen) according to the manufacturer's protocol. Cohorts of 8-week-old wild-type or Fbn1cw3gGi+ mice were treated with oral administration in drinking water of either Losartan or GSK343 for 20 weeks (FIG. 5). […] Then 200 mL of drinking water was supplemented with 250 pL of GSK343 stock solution. Control group for either drug treatment was given with equal volumes of sterile water. Bottles containing either losartan or GSKS343 were replaced with fresh water supplied with drugs every 3 days. For experiments described in FIG. 5A-5C, 16-week-old wild-type or Fbnicw3gGi+ mice were treated for 8 weeks and as described above. Additionally, a group of mice were given a combination of both losartan and GSK343 at the same concentrations as of other single drug treatments. Aortic dimensions were monitored monthly by echocardiograms as mentioned above.

[4] = tested on: MMP2 and MMP9 activity; experiment: in vivo MMP activity (MMPSense 750 FAST) after carotid ligation; set-up: species or system mouse; details: 24 h post injection, ligated mice
Procedure: Mice were tail vein injected with 600 uL of MMPSense 750 FAST, a near-infrared fluorescence sensor for MMP2 and MMP9 activity, (PerkinElmer, USA). Mice were sacrificed 24 h post injection and aortas were dissected and analyzed using a Kodak image station 4000MM Pro for macroscopic fluorescence reflectance molecular imaging.
Cohorts of 10-week-old wild-type mice were treated with oral administration in drinking water of GSK343 24 hrs before left carotid ligation and following treatment for 3 weeks. GSK343 inhibitor (25 mg) was dissolved in 1 mL of DMSO to obtain a stock solution of 46 mM. Then, 250 ml of drinking water was supplemented with 250 pl of GSK343 stock solution. Control group for was given with equal volumes of sterile water. Bottles containing GSK343 were replaced with fresh water supplied with drug every 3 days. For Malatl antisense LNA treatments, cohorts of 10-week-old wild-type mice were injected with 15 nmol in saline solution 24 hrs before left carotid ligation following by a second injection 7 days post-ligation.

[5] = tested on: SM22a; experiment: immunostaining of SM22a protein in aortas of treated Fbn1C1039G/+ mice; type: in vivo, mouse; details: compared to control Fbn1C1039G/+ mice
Procedure: Latex was injected into the left ventricular apex under low pressure until it was visible in the femoral artery. Animals were then fixed in Formalin (10%) for 24 hours before transfer to 70% ethanol for dissection and storage. Aortas were then removed from the animals or dissected in situ for photography prior to paraffinization and sectioning (10 pM). Slides were produced for tissue staining or stained with standard stains including H&E staining, collagen deposition (Trichrome Stain (Masson) Kit, Sigma, USA), elastin (Verhoeff-Van Gieson, Thermo Scientific, MI, USA) or F-actin (ActinGreen™ 488 ReadyProbes, ThermoFisher Scientific, USA) for quantitative analysis. Elastin integrity score was rated by blinded observers and graded on an arbitrary scale of 5 (indicating high quality elastic fiber) to 1 (indicating severe elastin fragmentation). For nuclear staining aortas from human and mice were cryosectioned using OCT standard protocol as described previously (Fischer et al., 2008). Cohorts of 8-week-old wild-type or Fbn1cw3gGi+ mice were treated with oral administration in drinking water of either Losartan or GSK343 for 20 weeks (FIG. 5). […] Then 200 mL of drinking water was supplemented with 250 pL of GSK343 stock solution. […] Aortic dimensions were monitored monthly by echocardiograms as mentioned above.

[6] = tested on: aortic wall of Fbn1C1039G/+ mice; experiment: histologic analysis of aortas of treated Fbn1C1039G/+ mice; type: in vivo, mouse; details: aortas of Fbn1C1039G/+ mice treated from two to six months
Procedure: Latex was injected into the left ventricular apex under low pressure until it was visible in the femoral artery. Animals were then fixed in Formalin (10%) for 24 hours before transfer to 70% ethanol for dissection and storage. Aortas were then removed from the animals or dissected in situ for photography prior to paraffinization and sectioning (10 pM). Slides were produced for tissue staining or stained with standard stains including H&E staining, collagen deposition (Trichrome Stain (Masson) Kit, Sigma, USA), elastin (Verhoeff-Van Gieson, Thermo Scientific, MI, USA) or F-actin (ActinGreen™ 488 ReadyProbes, ThermoFisher Scientific, USA) for quantitative analysis. Elastin integrity score was rated by blinded observers and graded on an arbitrary scale of 5 (indicating high quality elastic fiber) to 1 (indicating severe elastin fragmentation). For nuclear staining aortas from human and mice were cryosectioned using OCT standard protocol as described previously (Fischer et al., 2008). Cohorts of 8-week-old wild-type or Fbn1cw3gGi+ mice were treated with oral administration in drinking water of either Losartan or GSK343 for 20 weeks (FIG. 5). […] Then 200 mL of drinking water was supplemented with 250 pL of GSK343 stock solution. Control group for either drug treatment was given with equal volumes of sterile water. Bottles containing either losartan or GSKS343 were replaced with fresh water supplied with drugs every 3 days. For experiments described in FIG. 5A-5C, 16-week-old wild-type or Fbnicw3gGi+ mice were treated for 8 weeks and as described above. Additionally, a group of mice were given a combination of both losartan and GSK343 at the same concentrations as of other single drug treatments. Aortic dimensions were monitored monthly by echocardiograms as mentioned above.

## CCCc1cc(C)[nH]c(=O)c1CNC(=O)c1cc(-c2ccnc(N3CCN(C)CC3)c2)cc2c1cnn2C(C)C [GSK343]
[1]
  selectivity against other histone methyltransferases: ≥ 1000 fold
[2]
  cytoskeletal architecture: improved cytoskeletal architecture
[3]
  contractile elements: better recovery of contractile elements
  synthetic markers (Col1a1, Col3a1, Gja1, Mmp2): inability to repress synthetic markers
[4]
  activity of MMPs: Inhibition of Mmp activity; also recorded: inhibited the activity of MMPs
[5]
  SM22a protein expression (immunostaining of aortas): recovery of SM22a protein expression
[6]
  aortic architecture and filamentous actin content: improvement
  elastin integrity: not a significant improvement in elastin fiber integrity
